Results: publication PMC4415909 (Journal of Medicinal Chemistry, 2015)
Where a name gives a salt, the structure may show the parent alone.

Columns and labels:
[1] = Human hepatocyte clearance; assay type: in vitro ADME; conditions: hepatocytes
BACE1 = BACE1 (Homo sapiens, UniProt P56817); assay type: biochemical
hERG = hERG (Homo sapiens, UniProt Q12809); experiment: hERG patch clamp assay in hERG-expressing CHO cells; assay type: cell-based; conditions: pH 7.35
[2] = system: major CYP-P450s (1A2, 2C9, 2D6, 3A4, 2C8, 2C19); experiment: Multipoint cocktail DDI IC50 assay, major CYP-P450s; assay type: in vitro ADME; conditions: human, pooled human liver microsomes (HL-MIX-102), pH 7.4
[3] = system: retinal pigment epithelium (RPE) layer of the eye; conditions: cited from earlier work
[4] = cited from earlier work

Chain of BACE1 (P56817 46-457 limits assumed): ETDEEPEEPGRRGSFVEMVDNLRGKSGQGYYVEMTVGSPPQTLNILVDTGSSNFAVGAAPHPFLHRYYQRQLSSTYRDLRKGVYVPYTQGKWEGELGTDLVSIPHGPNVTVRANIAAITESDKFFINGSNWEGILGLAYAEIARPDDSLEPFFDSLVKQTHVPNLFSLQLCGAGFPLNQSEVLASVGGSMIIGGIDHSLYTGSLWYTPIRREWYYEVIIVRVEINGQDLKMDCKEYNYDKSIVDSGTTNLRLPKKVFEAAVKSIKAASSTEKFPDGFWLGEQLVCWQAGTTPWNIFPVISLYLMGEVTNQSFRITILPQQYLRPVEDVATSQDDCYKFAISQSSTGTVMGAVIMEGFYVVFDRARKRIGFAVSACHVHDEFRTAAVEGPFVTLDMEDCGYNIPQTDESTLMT
Chain of hERG (Q12809 whole entry): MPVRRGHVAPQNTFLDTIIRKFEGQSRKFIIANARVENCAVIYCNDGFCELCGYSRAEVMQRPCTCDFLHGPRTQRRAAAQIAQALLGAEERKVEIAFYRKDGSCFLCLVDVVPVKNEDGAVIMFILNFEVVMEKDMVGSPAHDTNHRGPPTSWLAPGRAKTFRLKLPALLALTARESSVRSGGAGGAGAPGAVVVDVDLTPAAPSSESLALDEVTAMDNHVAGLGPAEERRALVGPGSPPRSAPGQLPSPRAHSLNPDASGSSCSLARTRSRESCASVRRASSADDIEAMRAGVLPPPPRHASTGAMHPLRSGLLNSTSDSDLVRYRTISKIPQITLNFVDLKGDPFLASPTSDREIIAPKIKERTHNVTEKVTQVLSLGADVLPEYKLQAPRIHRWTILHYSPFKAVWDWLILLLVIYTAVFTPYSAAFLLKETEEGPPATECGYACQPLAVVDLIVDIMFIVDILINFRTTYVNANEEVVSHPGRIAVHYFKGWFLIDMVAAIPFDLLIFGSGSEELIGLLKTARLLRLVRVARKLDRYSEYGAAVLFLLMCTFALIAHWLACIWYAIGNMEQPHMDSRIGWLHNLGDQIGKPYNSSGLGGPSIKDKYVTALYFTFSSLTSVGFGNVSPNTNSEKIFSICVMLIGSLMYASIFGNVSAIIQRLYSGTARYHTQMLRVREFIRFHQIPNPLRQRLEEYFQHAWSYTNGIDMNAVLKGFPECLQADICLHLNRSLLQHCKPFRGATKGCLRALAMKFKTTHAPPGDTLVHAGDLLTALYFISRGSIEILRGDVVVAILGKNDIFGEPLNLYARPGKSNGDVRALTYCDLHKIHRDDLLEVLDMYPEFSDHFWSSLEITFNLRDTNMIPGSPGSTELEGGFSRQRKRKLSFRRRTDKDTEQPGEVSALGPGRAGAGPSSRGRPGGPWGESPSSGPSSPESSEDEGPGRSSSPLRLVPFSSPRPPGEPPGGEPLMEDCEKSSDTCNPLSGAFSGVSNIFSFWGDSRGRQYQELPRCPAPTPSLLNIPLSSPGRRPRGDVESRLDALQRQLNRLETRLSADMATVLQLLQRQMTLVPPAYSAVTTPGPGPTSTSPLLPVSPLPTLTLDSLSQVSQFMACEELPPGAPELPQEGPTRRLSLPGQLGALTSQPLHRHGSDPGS

SMILES: Cn1cc([C@H]2C[C@H]3CSC(N)=N[C@@]3(c3ccc(F)cc3F)CO2)cn1 [Compound 5, (4aR,6R,8aS)-8a-(2,4-Difluorophenyl)-6-(1-methyl-1H-pyrazol-4-yl)-4,4a,5,6,8,8a-hexahydropyrano[3,4-d][1,3]thiazin-2-amine]
- hepatocyte CLint [1]: < 6 µL/min/1e6 cells
- improvement of BACE1 potency over compound 2 (BACE1): approximately 10 fold

SMILES: Cc1cc([C@H]2C[C@H]3[C@@H](CF)SC(N)=N[C@@]3(c3ccc(F)cc3F)CO2)on1 [Compound 13, (4S,4aR,6R,8aS)-8a-(2,4-Difluorophenyl)-4-(fluoromethyl)-6-(3-methyl-1,2-oxazol-5-yl)-4,4a,5,6,8,8a-hexahydropyrano[3,4-d][1,3]thiazin-2-amine]
- improvement of hERG margin compared to isoxazole 10 (hERG): greater than 7 fold
- IC50 [2]: > 30 µM

SMILES: C[C@@]1(c2cc(-c3cncnc3)c(F)cc2F)CCSC(N)=N1 [LY2811376]
- finding in rat safety studies [3]: accumulation of autofluorescent material and degeneration of the retinal pigment epithelium (RPE) layer of the eye

SMILES: NC1=N[C@@]2(c3ccc(F)cc3F)CO[C@@H](c3ncco3)C[C@H]2CS1 [Compound 2, (4aR,6R,8aS)-8a-(2,4-Difluorophenyl)-6-(oxazol-2-yl)-4,4a,5,6,8,8a-hexahydropyrano[3,4-d][1,3]thiazin-2-amine]
- improvement of BACE1 potency over 1 (BACE1): ~2 fold
- LipE (BACE1; LipE = BACE1 CFA pIC50 – log D): 5.2

SMILES: Cc1coc([C@H]2C[C@H]3[C@@H](C)SC(N)=N[C@@]3(c3ccc(F)cc3F)CO2)n1 [Compound 9, (4R,4aR,6R,8aS)-8a-(2,4-Difluorophenyl)-4-methyl-6-(4-methyloxazol-2-yl)-4,4a,5,6,8,8a-hexahydropyrano[3,4-d][1,3]thiazin-2-amine]
- IC50 [2]: > 30 µM

SMILES: CC1(C#Cc2cnc3c(c2)[C@]2(COC(N)=N2)c2cc(-c4cccnc4F)ccc2O3)COC1 [AMG-8718]
- finding in rat safety studies [3]: accumulation of autofluorescent material and degeneration of the retinal pigment epithelium (RPE) layer of the eye

SMILES: Cc1coc([C@H]2C[C@H]3[C@@H](CF)SC(N)=N[C@@]3(c3ccc(F)cc3F)CO2)n1 [Compound 12, (4S,4aR,6R,8aS)-8a-(2,4-Difluorophenyl)-4-(fluoromethyl)-6-(4-methyloxazol-2-yl)-4,4a,5,6,8,8a-hexahydropyrano[3,4-d][1,3]thiazin-2-amine]
- IC50 [2]: > 30 µM

SMILES: Cn1cc([C@H]2C[C@H]3[C@@H](CF)SC(N)=N[C@@]3(c3ccc(F)cc3F)CO2)cn1 [Compound 14, (4S,4aR,6R,8aS)-8a-(2,4-Difluorophenyl)-4-(fluoromethyl)-6-(1-methyl-1H-pyrazol-4-yl)-4,4a,5,6,8,8a-hexahydropyrano[3,4-d][1,3]thiazin-2-amine, Hydrochloride Salt]
- IC50 [2]: > 30 µM

SMILES: Cc1cc([C@H]2C[C@H]3CSC(N)=N[C@@]3(c3ccc(F)cc3F)CO2)on1 [Compound 4, (4aR, 6R, 8aS)-8a-(2,4-Difluorophenyl)-6-(3-methyl-1,2-oxazo1-5-yl)-4,4-a,5,6,8,8a-hexahydropyrano [3,4-][1,3]thiazin-2-amine]
- improvement of BACE1 potency over compound 2 (BACE1): approximately 10 fold

SMILES: Cc1coc([C@H]2C[C@H]3CSC(N)=N[C@@]3(c3ccc(F)cc3F)CO2)n1 [Compound 3, (4aR,6R,8aS)-8a-(2,4-Difluorophenyl)-6-(4-methyloxazol-2-yl)-4,4a,5,6,8,8a-hexahydropyrano[3,4-d][1,3]thiazin-2-amine]
- improvement of BACE1 potency over compound 2 (BACE1): approximately 10 fold

SMILES: NC1=N[C@@]2(c3cc(NC(=O)c4ccc(F)cn4)ccc3F)COC[C@H]2CS1 [LY2886721]
- finding that terminated phase II study [4]: abnormal liver biochemical tests
